Assay [1] relates to Rattus norvegicus. The assay is described as follows: Antinociceptive activity in Wistar albino rat assessed as latency in reaction time required for thermal stimulus-induced tail flicking at 15 mg/kg, po after 180 mins by analgesiometric analysis (RVb=3.16 +/- 0.16 seconds). In kind it is functional.
Assay [2] deals with Rattus norvegicus. The assay is described as follows: Antinociceptive activity in Wistar albino rat assessed as latency in reaction time required for thermal stimulus-induced tail flicking at 15 mg/kg, po after 30 mins by analgesiometric analysis (RVb=3.33 +/- 0.21 seconds). It is filed as functional.
Assay [3] concerns Mus musculus. The assay is described as follows: Antinociceptive activity in Swiss albino mouse assessed as protection against acetic acid-induced abdominal constriction at 30 mg/kg, po measured for 10 mins after 5 mins of acetic acid challenge relative to control. It is filed as functional, Abdomen.
Assay [4] relates to Rattus norvegicus. The assay is described as follows: Antinociceptive activity in Wistar albino rat assessed as latency in reaction time required for thermal stimulus-induced tail flicking at 15 mg/kg, po after 60 mins by analgesiometric analysis (RVb=3.16 +/- 0.16 seconds). In kind it is functional.
Assay [5] deals with Rattus norvegicus. Put plainly: Antinociceptive activity in Wistar albino rat assessed as latency in reaction time required for thermal stimulus-induced tail flicking at 30 mg/kg, po after 30 mins by analgesiometric analysis (RVb=3.33 +/- 0.21 seconds). It is filed as functional.
The subject of assay [6] is Rattus norvegicus. The assay is described as follows: Antinociceptive activity in Wistar albino rat assessed as latency in reaction time required for thermal stimulus-induced tail flicking at 30 mg/kg, po after 120 mins by analgesiometric analysis (RVb=3.33 +/- 0.21 seconds). It is filed as functional.
In assay [7] the test system is Rattus norvegicus. The assay is described as follows: Antinociceptive activity in Wistar albino rat assessed as latency in reaction time required for thermal stimulus-induced tail flicking at 30 mg/kg, po after 60 mins by analgesiometric analysis (RVb=3.16 +/- 0.16 seconds). In kind it is functional.
Assay [8] deals with Rattus norvegicus. The assay is described as follows: Antinociceptive activity in Wistar albino rat assessed as latency in reaction time required for thermal stimulus-induced tail flicking at 15 mg/kg, po after 120 mins by analgesiometric analysis (RVb=3.33 +/- 0.21 seconds). It is filed as functional.
The test system of assay [9] is Rattus norvegicus. Put plainly: Antinociceptive activity in Wistar albino rat assessed as latency in reaction time required for thermal stimulus-induced tail flicking at 30 mg/kg, po after 180 mins by analgesiometric analysis (RVb=3.16 +/- 0.16 seconds). In kind it is functional.
Assay [10] concerns Mus musculus. The assay is described as follows: Antinociceptive activity in Swiss albino mouse assessed as protection against acetic acid-induced abdominal constriction at 15 mg/kg, po measured for 10 mins after 5 mins of acetic acid challenge relative to control. It is filed as functional, Abdomen.

In the case of `Clc1ccc(-c2nn(-c3ccccc3)cc2-c2cc(-c3ccccc3)on2)cc1`, the Activity is on record as 3.83 s with Rattus norvegicus [1]; 3.16 s in the assay on Rattus norvegicus [2]; 49.04% in the assay on Mus musculus [3]; 4.16 s with Rattus norvegicus [4]; 3.83 s in the assay with Rattus norvegicus [5]; 6.6 s in the assay on Rattus norvegicus [6]. Further, the Activity in the assay with Rattus norvegicus [7] amounted to 6.83 s; in the assay with Rattus norvegicus [8], 4 s; in the assay on Rattus norvegicus [9], 6.16 s; in the assay on Mus musculus [10] it was 1.58%.

Turning to `CCCCc1cc(-c2cn(-c3ccccc3)nc2-c2ccc(Cl)cc2)no1`, the Activity was 3.33 s in the assay with Rattus norvegicus [1]; 3.16 s with Rattus norvegicus [2]; 47.09% in the assay on Mus musculus [3]; 3.66 s in the assay with Rattus norvegicus [4]; 3.33 s with Rattus norvegicus [5]; 6.6 s with Rattus norvegicus [6]. Besides, the Activity was 6.83 s in the assay on Rattus norvegicus [7], 3.5 s in the assay with Rattus norvegicus [8], 6.16 s in the assay with Rattus norvegicus [9] and 12.56% in the assay with Mus musculus [10].

`O=C1C2ON=C(c3cn(-c4ccccc4)nc3-c3ccc(Cl)cc3)C2C(=O)N1c1ccccc1` (stereo not given): the Activity came to 3.66 s in the assay on Rattus norvegicus [1]; 3.33 s in the assay on Rattus norvegicus [2]; 43.15% in the assay with Mus musculus [3]; 4.16 s in the assay with Rattus norvegicus [4]; 3.33 s in the assay on Rattus norvegicus [5]; 6 s with Rattus norvegicus [6]. The Activity is 6.16 s in the assay with Rattus norvegicus [7], 4 s in the assay on Rattus norvegicus [8], 5.5 s with Rattus norvegicus [9] and 23.93% with Mus musculus [10].

Consider `Brc1ccc(-c2nn(-c3ccccc3)cc2-c2cc(-c3ccccc3)on2)cc1`, for which the Activity is listed as 3.5 s in the assay with Rattus norvegicus [1]; 3.16 s with Rattus norvegicus [2]; 31.39% with Mus musculus [3]; 3.23 s with Rattus norvegicus [4]; 3.33 s in the assay with Rattus norvegicus [5]; 5.66 s in the assay with Rattus norvegicus [6]. The Activity in the assay with Rattus norvegicus [7] is 5.83 s; with Rattus norvegicus [8] it was 3.66 s; with Rattus norvegicus [9] it was 5.16 s; in the assay with Mus musculus [10], 14.52%.

As to `CN1C(=O)C2ON=C(c3cn(-c4ccccc4)nc3-c3ccc(Cl)cc3)C2C1=O` (stereo not given), the Activity is recorded as 3.66 s in the assay on Rattus norvegicus [1]; 3.16 s with Rattus norvegicus [2]; 23.15% in the assay on Mus musculus [3]; 4 s with Rattus norvegicus [4]; 3.33 s in the assay on Rattus norvegicus [5]; 6.5 s with Rattus norvegicus [6]. The Activity was 6.66 s with Rattus norvegicus [7], 3.83 s in the assay on Rattus norvegicus [8], 5.5 s with Rattus norvegicus [9] and 7.84% in the assay on Mus musculus [10].

As to `O=C1C2ON=C(c3cn(-c4ccccc4)nc3-c3ccccc3)C2C(=O)N1c1ccccc1` (stereo not given), the Activity in the assay on Rattus norvegicus [1] was found to be 3.33 s; in the assay on Rattus norvegicus [2] it was 3.16 s; in the assay on Mus musculus [3], 47.39%; in the assay with Rattus norvegicus [4], 3.5 s; with Rattus norvegicus [5], 3.33 s; in the assay on Rattus norvegicus [6] it was 6.66 s. Besides, the Activity in the assay with Rattus norvegicus [7] amounted to 6.83 s; with Rattus norvegicus [8], 3.33 s; in the assay on Rattus norvegicus [9], 5.66 s; with Mus musculus [10], 30.58%.

With `CN1C(=O)C2ON=C(c3cn(-c4ccccc4)nc3-c3ccccc3)C2C1=O` (stereo not given), the Activity in the assay on Rattus norvegicus [1] is listed as 3.33 s; in the assay with Rattus norvegicus [2], 3.16 s; with Mus musculus [3], 30.58%; with Rattus norvegicus [4], 3.5 s; in the assay on Rattus norvegicus [5], 3.33 s; with Rattus norvegicus [6], 5 s. The Activity is given as 5.16 s in the assay on Rattus norvegicus [7], 3.5 s in the assay on Rattus norvegicus [8], 4.83 s in the assay on Rattus norvegicus [9] and 1.17% in the assay on Mus musculus [10].

Regarding `CCOC(=O)c1onc(-c2cn(-c3ccccc3)nc2-c2ccc(Cl)cc2)c1C(=O)OCC`, the Activity in the assay on Rattus norvegicus [1] is given as 4 s; with Rattus norvegicus [2], 3.33 s; in the assay on Mus musculus [3] it was 55.29%; with Rattus norvegicus [4] it was 4.33 s; in the assay on Rattus norvegicus [5] it was 3.83 s; with Rattus norvegicus [6] it was 8.33 s. Also, the Activity is recorded as 8.66 s with Rattus norvegicus [7], 4.16 s in the assay on Rattus norvegicus [8], 7.5 s with Rattus norvegicus [9] and 17.27% in the assay with Mus musculus [10].

Consider `Cc1ccc(N2C(=O)C3ON=C(c4cn(-c5ccccc5)nc4-c4ccc(Cl)cc4)C3C2=O)cc1` (stereo not given), for which the Activity with Rattus norvegicus [1] came out at 3.33 s; in the assay with Rattus norvegicus [2] it was 3.33 s; in the assay with Mus musculus [3], 42.75%; in the assay on Rattus norvegicus [4] it was 3.66 s; in the assay on Rattus norvegicus [5], 3.33 s; in the assay on Rattus norvegicus [6] it was 5.16 s. In addition, the Activity with Rattus norvegicus [7] was found to be 5.33 s; in the assay on Rattus norvegicus [8], 3.33 s; with Rattus norvegicus [9], 4.5 s; in the assay with Mus musculus [10], 22.75%.

In the case of `CN1C(=O)C2ON=C(c3cn(-c4ccccc4)nc3-c3ccc(Br)cc3)C2C1=O` (stereo not given), the Activity in the assay with Rattus norvegicus [1] is 3.33 s; in the assay on Rattus norvegicus [2] it was 3.16 s; with Mus musculus [3] it was 40.4%; in the assay on Rattus norvegicus [4], 3.83 s; in the assay on Rattus norvegicus [5], 3.33 s; with Rattus norvegicus [6] it was 7 s. The Activity came to 7.16 s in the assay on Rattus norvegicus [7], 3.83 s with Rattus norvegicus [8], 6.5 s with Rattus norvegicus [9] and 9.81% with Mus musculus [10].

For the molecule `COc1ccc(-c2nn(-c3ccccc3)cc2-c2cc(-c3ccccc3)on2)cc1`, the Activity in the assay with Rattus norvegicus [1] amounted to 3.5 s; in the assay with Rattus norvegicus [2], 3.16 s; with Mus musculus [3] it was 30.99%; in the assay on Rattus norvegicus [4] it was 4.16 s; with Rattus norvegicus [5], 3.33 s; in the assay with Rattus norvegicus [6], 5.83 s. The Activity in the assay on Rattus norvegicus [7] was found to be 6 s; in the assay with Rattus norvegicus [8], 4 s; in the assay on Rattus norvegicus [9], 5.33 s; in the assay with Mus musculus [10], 11.77%.

As to `CCOC(=O)c1onc(-c2cn(-c3ccccc3)nc2-c2ccc(Br)cc2)c1C(=O)OCC`, the Activity in the assay with Rattus norvegicus [1] was 3.5 s; in the assay with Rattus norvegicus [2] it was 3.33 s; in the assay with Mus musculus [3] it was 56.87%; with Rattus norvegicus [4], 4 s; with Rattus norvegicus [5], 3.33 s; in the assay with Rattus norvegicus [6], 8 s. The Activity was 8.16 s with Rattus norvegicus [7], 3.83 s in the assay on Rattus norvegicus [8], 7.5 s in the assay with Rattus norvegicus [9] and 12.94% in the assay on Mus musculus [10].

As for `CCOC(=O)c1onc(-c2cn(-c3ccccc3)nc2-c2ccc(OC)cc2)c1C(=O)OCC`, the Activity in the assay with Rattus norvegicus [1] was 4 s; in the assay on Rattus norvegicus [2], 3.33 s; with Mus musculus [3] it was 57.65%; with Rattus norvegicus [4] it was 5 s; in the assay with Rattus norvegicus [5], 3.83 s; in the assay on Rattus norvegicus [6] it was 7.66 s. For the same molecule, the Activity with Rattus norvegicus [7] was found to be 7.83 s; in the assay with Rattus norvegicus [8] it was 4.33 s; in the assay on Rattus norvegicus [9], 7 s; in the assay with Mus musculus [10], 11.39%.

For the molecule `O=C1C2ON=C(c3cn(-c4ccccc4)nc3-c3ccc(Br)cc3)C2C(=O)N1c1ccccc1` (stereo not given), the Activity is given as 3.33 s with Rattus norvegicus [1]; 3.16 s in the assay with Rattus norvegicus [2]; 49.04% in the assay with Mus musculus [3]; 3.66 s with Rattus norvegicus [4]; 3.16 s in the assay with Rattus norvegicus [5]; 6.83 s in the assay with Rattus norvegicus [6]. For the same molecule, the Activity in the assay with Rattus norvegicus [7] turned out to be 7 s; with Rattus norvegicus [8] it was 3.66 s; in the assay on Rattus norvegicus [9], 6.5 s; in the assay on Mus musculus [10] it was 2.75%.

With `CCOc1ccc(-c2nn(-c3ccccc3)cc2C2=NOC3C(=O)N(C)C(=O)C23)cc1` (stereo not given), the Activity is recorded as 3.5 s with Rattus norvegicus [1]; 3.16 s in the assay on Rattus norvegicus [2]; 47.46% in the assay on Mus musculus [3]; 4 s with Rattus norvegicus [4]; 3.83 s in the assay on Rattus norvegicus [5]; 6 s with Rattus norvegicus [6]. Besides, the Activity with Rattus norvegicus [7] was 6.16 s; in the assay with Rattus norvegicus [8] it was 3.83 s; in the assay on Rattus norvegicus [9] it was 5.83 s; with Mus musculus [10] it was 22.75%.

For `CCOc1ccc(-c2nn(-c3ccccc3)cc2C2=NOC3C(=O)N(c4ccccc4)C(=O)C23)cc1` (stereo not given), the Activity in the assay on Rattus norvegicus [1] worked out at 3.5 s; in the assay with Rattus norvegicus [2] it was 3.16 s; in the assay with Mus musculus [3] it was 49.51%; with Rattus norvegicus [4], 3.16 s; in the assay with Rattus norvegicus [5], 3.16 s; in the assay on Rattus norvegicus [6], 6.16 s. Moreover, the Activity in the assay with Rattus norvegicus [7] is 6.83 s; in the assay with Rattus norvegicus [8], 3.5 s; in the assay on Rattus norvegicus [9], 5.83 s; with Mus musculus [10] it was 12.16%.

Values taken from ChEMBL document CHEMBL1158448, “Synthesis and antinociceptive activity of pyrazolyl isoxazolines and pyrazolyl isoxazoles” (2009).
